Source: ChEMBL document CHEMBL4699435, “Synthesis and biological screening of a library of macamides as TNF-alpha inhibitors” (RSC Med Chem, 2020)

Columns and labels:
[1] = Cytotoxicity against human THP-1 cells assessed as reduction in cell viability incubated for 72 hrs by MTT assay; format: cell-based
THP-1 [2] = experiment: Inhibition of LPS-induced TNFalpha production in human THP-1 cells incubated for 2 hrs followed by LPS stimulation and measured after 12 hrs by ELISA; format: functional, cell-based
THP-1 [3] = experiment: Potency index, ratio of IC50 of N-(2-hydroxyethyl)-7Z,10Z,13Z,16Z-docosatetraenamide to IC50 of compound for inhibition of LPS-induced TNFalpha production in human THP-1 cells incubated for 2 hrs followed by LPS stimulation and measured after 12 hrs by ELISA; format: functional
THP-1 [4] = experiment: Potency index, ratio of IC50 of N-oleoyldopamine-macamide to IC50 of compound for inhibition of LPS-induced TNFalpha production in human THP-1 cells incubated for 2 hrs followed by LPS stimulation and measured after 12 hrs by ELISA; format: functional
THP-1 [5] = experiment: Potency index, ratio of IC50 of C87 to IC50 of compound for inhibition of LPS-induced TNFalpha production in human THP-1 cells incubated for 2 hrs followed by LPS stimulation and measured after 12 hrs by ELISA; format: functional

SMILES	IC50 (THP-1 [2]) [µM]	CC50 at 72 h [1] [µM]	Ratio IC50 (THP-1 [3])	Ratio IC50 (THP-1 [4])	Ratio IC50 (THP-1 [5])
CCCCCCCCCCCCCCCC(=O)NCc1ccccc1	43.1	100	–	–	–
CCCCC/C=C\C/C=C\CCCCCCCC(=O)NCCc1ccccc1	15.7	88.2	–	–	–
CCCCC/C=C\C/C=C\CCCCCCCC(=O)NC(CC)c1ccccc1 (configuration not stated)	19.7	96.5	–	–	–
CCCCC/C=C\C/C=C\CCCCCCCC(=O)NNc1ccccc1	8.9	98.1	–	–	–
CCCCCCCC/C=C\CCCCCCCC(=O)NCc1ccccc1	15.2	97.3	–	–	–
CCCCC/C=C\C/C=C\CCCCCCCC(=O)NC(CO)c1ccccc1 (configuration not stated)	56.8	98	–	–	–
CCCCCCCC(=O)NCc1ccccc1	58.7	100	–	–	–
CCCCCCCCCCCCCCCCCC(=O)NCc1ccccc1	16.6	100	–	–	–
CCCCC/C=C\C/C=C\CCCCCCCC(=O)NCc1ccccc1	14.2	98.4	–	–	–
CCCCC/C=C\C/C=C\CCCCCCCC(=O)NC(C)(C)c1ccccc1	13.1	97.3	–	–	–
CCCCC/C=C\C/C=C\CCCCCCCC(=O)Nc1ccccc1	21	97.8	–	–	–
CCCCCCCC/C=C\CCCCCCCC(=O)O [OLEIC ACID]	79	100	–	–	–

Compounds with a lower IC50 (THP-1 [2]), results first:

IC50 (THP-1 [2]) [µM]	SMILES	CC50 at 72 h [1] [µM]	Ratio IC50 (THP-1 [3])	Ratio IC50 (THP-1 [4])	Ratio IC50 (THP-1 [5])
0.78	CCCCC/C=C\C/C=C\CCCCCCCC(=O)NC(C)c1ccc(F)cc1 (configuration not stated)	82.5	–	–	–
0.74	CCCCC/C=C\C/C=C\CCCCCCCC(=O)NC(C)c1ccc(Br)cc1 (configuration not stated)	81.4	–	–	–
0.71	CCCCC/C=C\C/C=C\CCCCCCCC(=O)NC(C)C1CCCCC1 (configuration not stated)	93.2	–	–	–
0.33	CCCCC/C=C\C/C=C\CCCCCCCC(=O)NC(C)c1cccc(C)c1 (configuration not stated)	91.7	–	–	–
8.3	CCCCC/C=C\C/C=C\CCCCCCCC(=O)NCCCc1ccccc1	80.3	–	–	–
3.54	CCCCCCCC/C=C\CCCCCCCC(=O)NCCc1ccc(O)c(O)c1 [OLEOYL DOPAMINE]	> 100	–	–	–
1.84	CCCCC/C=C\C/C=C\CCCCCCCC(=O)NC(C)c1ccc(O)cc1 (configuration not stated)	93.5	–	–	–
1	CCCCC/C=C\C/C=C\CCCCCCCC(=O)NC(C)C(C)(C)C (configuration not stated)	94.7	–	–	–
0.009	CCCCC/C=C\C/C=C\CCCCCCCC(=O)OC(C)c1cc(C)cc(C)c1 (configuration not stated)	90.1	200	200	12
5.2	CCCCC/C=C\C/C=C\CCCCCCCC(=O)NC(C)c1ccccc1 (configuration not stated) [MALINAMIDE]	95.8	–	–	–
6.4	CCCCC/C=C\C/C=C\CCCCCCCC(=O)OCc1ccccc1	95.4	–	–	–
0.08	CCCCC/C=C\C/C=C\CCCCCCCC(=O)NC(C)c1cc(C)cc(C)c1 (configuration not stated)	93.2	–	–	–
0.78	CCCCC/C=C\C/C=C\CCCCCCCC(=O)NC(C)C12CC3CC(CC(C3)C1)C2 (configuration not stated)	90.9	–	–	–
0.62	CCCCC/C=C\C/C=C\CCCCCCCC(=O)NC(C)c1ccc(C)cc1 (configuration not stated)	95	–	–	–
1.21	CCCCC/C=C\C/C=C\CCCCCCCC(=O)NC(C)c1ccc(CC)cc1 (configuration not stated)	89.8	–	–	–
